In PMC6594423, “Cobimetinib and trametinib inhibit platelet MEK but do not cause platelet dysfunction” (Platelets, 2018):

Test system: T1, MEK1 (platelet MEK; MEK1/2 not resolved)
T1 construct: gene MAP2K1
Assay: western blot of ERK1/[…] phosphorylation (MEK substrate) in CRP- or TRAP-6-stimulated washed human platelets
Format: cell-based

SMILES | log10 IC50 (M) | IC50
O=C(c1ccc(F)c(F)c1Nc1ccc(I)cc1F)N1CC(O)([C@@H]2CCCCN2)C1 [Cobimetinib] | -9.5 | 
CC(=O)Nc1cccc(-n2c(=O)n(C3CC3)c(=O)c3c(Nc4ccc(I)cc4F)n(C)c(=O)c(C)c32)c1 [Trametinib] |  | −10.9 ± 0.43 (logIC50) log M
